Laboratory results published in ChEMBL document CHEMBL4699589, “4-Hydroxy Pyridones from Heterologous Expression and Cultivation of the Native Host” (2020).

What was measured:
Type in all cases: functional
[1] = system: Staphylococcus aureus; experiment: Antibacterial activity against Staphylococcus aureus 209P assessed as reduction in microbial growth after 1 day by two-fold dilution method; details: 24 h
[2] = system: Escherichia coli; experiment: Antibacterial activity against Escherichia coli assessed as reduction in microbial growth after 1 day by two-fold dilution method; details: 24 h
[3] = system: Candida albicans; experiment: Antifungal activity against Candida albicans ATCC96901 assessed as reduction in microbial growth after 2 to 3 days by two-fold dilution method; details: time day 2-3
[4] = system: Cryptococcus neoformans; experiment: Antifungal activity against Cryptococcus neoformans assessed as reduction in microbial growth after 2 to 3 days by two-fold dilution method; details: time day 2-3

C/C=C/C[C@H](C)C[C@]1(C)Oc2c(-c3ccc(O)cc3)c[nH]c(=O)c2[C@@H]1O
MIC [1]: > 100 µM | MIC [2]: > 100 µM | MIC [3]: > 100 µM

C/C=C/C[C@H](C)C[C@H](C)C(=O)c1c(O)cc[nH]c1=O
MIC [1]: > 100 µM | MIC [2]: > 100 µM | MIC [4]: > 100 µM | MIC [3]: > 100 µM

C/C=C/C[C@H](C)C[C@H](C)C(=O)C1=C(O)/C(=C/c2ccc(O)cc2)NC1=O
MIC [1]: > 100 µM | MIC [2]: > 100 µM | MIC [4]: > 100 µM | MIC [3]: > 100 µM

C[C@H]1[C@H](O)[C@@H](C)C[C@@H]2[C@@H]1c1c(c(-c3ccc(O)cc3)c[nH]c1=O)O[C@H]2C
MIC [1]: > 100 µM | MIC [2]: > 100 µM | MIC [4]: > 100 µM | MIC [3]: > 100 µM

C/C=C/C[C@H](C)C[C@@]1(C)Oc2c(-c3ccc(O)cc3)c[nH]c(=O)c2[C@@H]1O
MIC [1]: > 100 µM | MIC [2]: > 100 µM | MIC [3]: > 100 µM

C/C=C/C[C@H](C)C[C@H](C)C(=O)c1c(O)c(-c2ccc(O)cc2)c[nH]c1=O
MIC [1]: > 100 µM | MIC [2]: > 100 µM | MIC [4]: 6.25 µM | MIC [3]: > 100 µM

C/C=C/C[C@H](C)C[C@]1(C)Oc2c(-c3ccc(O)cc3)c[nH]c(=O)c2[C@H]1O
MIC [1]: > 100 µM | MIC [2]: > 100 µM | MIC [3]: > 100 µM

C/C=C/C[C@H](C)C[C@H](C)C(=O)C1=C(O)[C@H](Cc2ccc(O)cc2)NC1=O
MIC [1]: > 100 µM | MIC [2]: > 100 µM | MIC [4]: > 100 µM | MIC [3]: > 100 µM

C[C@H]1C[C@@H]2[C@H](c3c(c(-c4ccc(O)cc4)c[nH]c3=O)O[C@@H]2C)[C@@H](C)C1
MIC [1]: > 100 µM | MIC [2]: > 100 µM | MIC [4]: 6.25 µM | MIC [3]: > 100 µM

C/C=C/C[C@H](C)C[C@H](C)C(=O)C1=C(O)[C@H]([C@@H](O)c2ccc(O)cc2)NC1=O
MIC [1]: > 100 µM | MIC [2]: > 100 µM | MIC [4]: 25 µM | MIC [3]: > 100 µM

C/C=C/C[C@H](C)C[C@@]1(C)Oc2c(-c3ccc(O)cc3)c[nH]c(=O)c2[C@H]1O
MIC [1]: > 100 µM | MIC [2]: > 100 µM | MIC [3]: > 100 µM
